Values of other authors, collected in patent publication US11793802B2, “Treatment of acute myeloid leukemia (AML) with venetoclax failure” (Sumitomo Pharma Oncology, Inc., priority 2019, dated 2023).
Values belong to the compound of their own block, whether it stands above or below them.

What was measured:
[1] = test system: hematological cancers, including AML; conditions: patients treated with venetoclax

Compound: Nc1ncn([C@@H]2O[C@H](CO)[C@@H](O)[C@H]2O)c(=O)n1 [azacitidine]
effect on MCL-1 protein levels in blasts (MCL-1 protein): reduce MCL-1 protein levels

oral bioavailability: orally bioavailable
Compound: CN1CC[C@H](c2c(OP(=O)(O)O)cc(O)c3c(=O)cc(-c4ccccc4Cl)oc23)[C@H](O)C1 [Formula (I-b)]

Compound: CC1(C)CCC(CN2CCN(c3ccc(C(=O)NS(=O)(=O)c4ccc(NCC5CCOCC5)c([N+](=O)[O-])c4)c(Oc4cnc5[nH]ccc5c4)c3)CC2)=C(c2ccc(Cl)cc2)C1 [venetoclax]
patients demonstrated complete remission [1]: 8-20%
patients showed no response [1]: 20-30%
patients showed disease progression ([1]; after 18 months): ~50%
